This assay concerns normal human photoreceptors cells. Kind of assay: In vitro study of photoreceptor membranes exposed to oxido-reductive stress. In kind it is cell-based. Conditions: exposure to strong electron donor substances; result in words. The text has this: The mitochondrial membranes are more basophilic, and they contain more unsaturated lipids than the disc membranes of the outer segments.

As for chlorpromazines, the disc membranes result was “disrupted the disc membranes in dose dependent manner” and the “structure of mitochondrial membranes” value is on record as “slighly altered”.

Source of the values: US6417233B1, “Ubiguinone-containing composition suitable for promoting enhanced intramitochondrial transportation of ubiguinones and methods of using same” (Sigma-Tau HealthScience S.p.A., priority 1998, dated 2002).
